Reference: patent EP2064211B1, “IMIDAZO[1,2-A]PYRIDINE HYDROXYMATE COMPOUNDS THAT ARE INHIBITORS OF HISTONE DEACETYLASE” (MEI Pharma, Inc., priority 2006, dated 2008)
Read-outs that look alike come from different tables or passages of the source.

What was measured:
[1] = tested on: Colo205 cells; assay: Cell-based proliferation assay for determination of GI50 values (CyQUANT); set-up: species or system Human; details: concentration for 50% inhibition of cell growth, read-out: Gl50 (Colo205)
Protocol: Human cancer cell lines (e.g. Colo205) were obtained from ATCC. Colo205 cells were cultivated in RPMI 1640 containing 2 mM L-Glutamine, 5% FBS, 1.0 mM Na Pyruvate. Colo205 cells were seeded in 96-wells plate at 5000 cells per well. The plates were incubated at 37°C, 5% CO2, for 24 h. Cells were treated with compounds at various concentrations for 96 h. Cell growth was then monitored using CyQUANT® cell proliferation assay (Invitrogen Pte Ltd). Dose response curves were plotted to determine Gl50 values for the compounds using XL-fit (ID Business Solution, Emeryville, CA). Gl50 is defined as the concentration of compound required for 50% inhibition of cell growth.

[2] = target: T1, HDAC1 enzyme (Homo sapiens, UniProt Q13547); assay: In vitro HDAC assay for determination of IC50 values (BIOMOL fluorescent-based HDAC activity assay); format: biochemical; details: recombinant GST-HDAC1, 500 uM Flur de lys substrate, room temperature 2 h; read-out: IC50 (HDAC 1)
T1 construct: Amplification of human HDAC1 coding region from this cDNA library was cloned separately into the baculovirus expression pDEST20 vector; made in house; host or cells: SF9 insect cells (baculovirus, pDEST20 vector)
T1 sequence (Q13547 whole entry): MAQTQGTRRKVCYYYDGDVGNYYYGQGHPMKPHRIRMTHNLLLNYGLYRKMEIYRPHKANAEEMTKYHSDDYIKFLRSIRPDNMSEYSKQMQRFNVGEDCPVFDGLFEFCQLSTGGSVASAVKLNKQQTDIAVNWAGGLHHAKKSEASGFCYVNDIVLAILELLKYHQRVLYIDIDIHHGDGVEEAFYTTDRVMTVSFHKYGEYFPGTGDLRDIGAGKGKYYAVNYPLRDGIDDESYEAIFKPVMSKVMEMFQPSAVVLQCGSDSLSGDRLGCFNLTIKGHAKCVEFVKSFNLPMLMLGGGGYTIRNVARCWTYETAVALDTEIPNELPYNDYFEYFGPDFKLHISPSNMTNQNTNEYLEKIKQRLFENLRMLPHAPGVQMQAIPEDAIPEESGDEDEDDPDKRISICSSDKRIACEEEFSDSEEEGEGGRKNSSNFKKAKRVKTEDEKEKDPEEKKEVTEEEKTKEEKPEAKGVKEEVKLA
Protocol: Human cDNA library was prepared using cultured SW620 cells. Amplification of human HDAC1 coding region from this cDNA library was cloned separately into the baculovirus expression pDEST20 vector (GATEWAY Cloning Technology, Invitrogen Pte Ltd). The pDEST20-HDAC1 construct was confirmed by DNA sequencing. Recombinant baculovirus was prepared using the Bac-To-Bac method following the manufacturer's instruction (Invitrogen Pte Ltd).
Expression of GST-HDAC1 was done by infecting SF9 cells (Invitrogen Pte Ltd) with pDEST20-HDAC1 baculovirus at MOI=1 for 48 h. Soluble cell lysate was incubated with pre-equilibrated Glutathione Sepharose 4B beads (Amersham) at 4°C for 2 h. The beads were washed with PBS buffer for 3 times. The GST-HDAC1 protein was eluted by elution buffer containing 50 mM Tris, pH8.0, 150mM NaCl, 1% Triton X-100 and 10mM or 20mM reduced Glutathione. The purified GST-HDAC1 protein was dialyzed with HDAC storage buffer containing 10mM Tris, pH7.5, 100mM NaCl and 3mM MgCl2. 20% Glycerol was added to purified GST-HDAC1 protein before storage at -80°C.
The assay has been carried out in 96 well format and the BIOMOL fluorescent-based HDAC activity assay has been applied. The reaction composed of assay buffer, containing 25 mM Tris pH 7.5, 137 mM NaCl, 2.7 mM KCl, 1 mM MgCl2, 1 mg/ml BSA, tested compounds, an appropriate concentration of HDAC1 enzyme, 500 uM Flur de lys generic substrate for HDAC1 enzyme and subsequently was incubated at room temperature for 2 h. Flur de lys Developer was added and the reaction was incubated for 10 min. Briefly, deacetylation of the substrate sensitizes it to the developer, which then generates a fluorophore. The fluorophore is excited with 360 nm light and the emitted light (460 nm) is detected on a fluorometric plate reader (Tecan Ultra Microplate detection system, Tecan Group Ltd.).
The analytical software, Prism 4.0 (GraphPad Software Inc) has been used to generate IC50 from a series of data. IC50 is defined as the concentration of compound required for 50% inhibition of HDAC enzyme activity.

[3] = Homo sapiens, COLO 205, compound treatment 96 h

| Compound | IC50 ([1]; compound treatment 96 h) | IC50 [1, 3] | IC50 [2] |
| --- | --- | --- | --- |
| 3-(2-Butyl-3-{(ethyl-(2-methyl-pentyl)-amino]-methyl}-imidazo[1,2-a]pyridin-7-yl)-N-hydroxy-acrylamide [Compound 41] | 370 nM | – | – |
| CC(C)(C)CNCc1c(C(C)(C)C)nc2cc(C=CC(=O)NO)ccn12 [Compound 1, 3-{2-tert-Butyl-3-[(2,2-dimethyl-propylamino)-methyl]-imidazo[1,2-a]pyridin-7-yl}-N-hydroxy-acrylamide] | – | 1500 nM | 190 nM |
| CCC(CC)NCc1c(C(C)(C)C)nc2cc(C=CC(=O)NO)ccn12 [Compound 2, 3-{2-tert-Butyl-3-[(1-ethyl-propylamino)-methyl]-imidazo[1,2-a]pyridin-7-yl}-N-hydroxy-acrylamide] | – | 1500 nM | 160 nM |
| CC(C)(C)NCc1c(C(C)(C)C)nc2cc(C=CC(=O)NO)ccn12 [Compound 3, 3-[2-tert-Butyl-3-(tert-butylamino-methyl)-imidazo[1,2-a]pyridin-7-yl]-N-hydroxy-acrylamide] | – | 740 nM | 130 nM |
| CCCCNCc1c(CCCC)nc2cc(C=CC(=O)NO)ccn12 [Compound 4, 3-(2-Butyl-3-butylaminomethyl-imidazo[1,2-a]pyridin-7-yl)-N-hydroxy-acrylamide] | – | 180 nM | 20 nM |
| CCCCc1nc2cc(C=CC(=O)NO)ccn2c1CN(CCC)CCC [Compound 6, 3-(2-Butyl-3-dipropylaminomethyl-imidazo[1,2-a]pyridin-7-yl)-N-hydroxy-acrylamide] | – | 610 nM | 200 nM |
| CCCCc1nc2cc(C=CC(=O)NO)ccn2c1CN(CC)CC [Compound 7, 3-(2-Butyl-3-diethylaminomethyl-imidazo[1,2-a]pyridin-7-yl)-N-hydroxy-acrylamide] | – | 680 nM | 180 nM |
| CCCCc1nc2cc(C=CC(=O)NO)ccn2c1CN(C)CCCC [Compound 8, 3-{2-Butyl-3-[(butyl-methyl-amino)-methyl]-imidazo[1,2-a]pyridin-7-yl}-N-hydroxy-acrylamide] | – | 170 nM | 70 nM |
| CCCCc1nc2cc(C=CC(=O)NO)ccn2c1CN(CC)CCCC [Compound 9, 3-{2-Butyl-3-[(butyl-ethyl-amino)-methyl]-imidazo[1,2-a]pyridin-7-yl}-N-hydroxy-acrylamide] | – | 160 nM | 60 nM |
| CCCCc1nc2cc(C=CC(=O)NO)ccn2c1CN(CCC)CCCC [Compound 10, 3-{2-Butyl-3-[(butyl-propyl-amino)-methyl]-imidazo[1,2-a]pyridin-7-yl}-N-hydroxy-acrylamide] | – | 580 nM | 90 nM |
| CCN(CC)Cc1c(C(C)(C)C)nc2cc(C=CC(=O)NO)ccn12 [Compound 11, 3-(2-tert-Butyl-3-diethylaminomethyl-imidazo[1,2-a]pyridin-7-yl)-N-hydroxy-acrylamide] | – | 4400 nM | 1200 nM |
| CCCCN(CCCC)Cc1c(C)nc2cc(/C=C/C(=O)NO)ccn12 [Compound 12, 3-(3-Dibutylaminomethyl-2-methyl-imidazo[1,2-a]pyridin-7-yl)-N-hyroxy-acrylamide] | – | 800 nM | 80 nM |
| CCCN(CC)Cc1c(C(C)(C)C)nc2cc(C=CC(=O)NO)ccn12 [Compound 13, 3-{2-tert-Butyl-3-[(ethyl-propyl-amino)-methyl]-imidazo[1,2-a]pyridin-7-yl}-N-hydroxy-acrylamide] | – | 1800 nM | 270 nM |
| CCCCc1nc2cc(C=CC(=O)NO)ccn2c1CN(C)C [Compound 14, 3-(2-Butyl-3-dimethylaminomethyl-imidazo[1,2-a]pyridin-7-yl)-N-hydroxy-acrylamide] | – | 230 nM | 40 nM |
| CCNCc1c(C(C)(C)C)nc2cc(C=CC(=O)NO)ccn12 [Compound 15, 3-(2-tert-Butyl-3-ethylaminomethyl-imidazo[1,2-a]pyridin-7-yl)-N-hydroxy-acrylamide] | – | 470 nM | 60 nM |
| CCCCN(CC)Cc1c(C(C)(C)C)nc2cc(C=CC(=O)NO)ccn12 [Compound 16, 3-{2-tert-Butyl-3-[(butyl-ethyl-amino)-methyl]-imidazo[1,2-a]pyridin-7-yl}-N-hydroxy-acrylamide] | – | 680 nM | 60 nM |
| CCN(Cc1c(C(C)(C)C)nc2cc(C=CC(=O)NO)ccn12)CC(C)C [Compound 17, 3-{2-tert-Butyl-3-[(ethyl-isobutyl-amino)-methyl]-imidazo[1,2-a]pyridin-7-yl}-N-hydroxy-acrylamide] | – | 3900 nM | 570 nM |
| CCCCCN(CC)Cc1c(C(C)(C)C)nc2cc(C=CC(=O)NO)ccn12 [Compound 18, 3-{2-tert-Butyl-3-[(ethyl-pentyl-amino)-methyl]-imidazo[1,2-a]pyridin-7-yl}-N-hydroxy-acrylamide] | – | 750 nM | 130 nM |
| CCC(C)CN(CC)Cc1c(C(C)(C)C)nc2cc(C=CC(=O)NO)ccn12 (stereo not shown) [Compound 19, 3-(2-tert-Butyl-3-{[ethyl-(2-methyl-butyl)-amino]-methyl}-imidazo[1,2-a]pyridin-7-yl)-N-hydroxy-acrylamide] | – | 2200 nM | – |
| CCN(CCC(C)C)Cc1c(C(C)(C)C)nc2cc(C=CC(=O)NO)ccn12 [Compound 20, 3-(2-tert-Butyl-3-{[ethyl-(3-methyl-butyl)-amino]-methyl}-imidazo[1,2-a]pyridin-7-yl)-N-hydroxy-acrylamide] | – | 350 nM | 60 nM |
| CCCCCCN(CC)Cc1c(C(C)(C)C)nc2cc(C=CC(=O)NO)ccn12 [Compound 21, 3-{2-tert-Butyl-3-[(ethyl-hexyl-amino)-methyl]-imidazo[1,2-a]pyridin-7-yl}-N-hydroxy-acrylamide] | – | 2000 nM | 240 nM |
| CCCC(C)CN(CC)Cc1c(C(C)(C)C)nc2cc(C=CC(=O)NO)ccn12 (stereo not shown) [Compound 22, 3-(2-tert-Butyl-3-{[ethyl-(2-methyl-pentyl)-amino]-methyl}-imidazo[1,2-a]pyridin-7-yl)-N-hydroxy-acrylamide] | – | 2100 nM | 470 nM |
| CCN(CCC(C)(C)C)Cc1c(C(C)(C)C)nc2cc(C=CC(=O)NO)ccn12 [Compound 23, 3-(2-tert-Butyl-3-{[(3,3-dimethyl-butyl)-ethyl-amino]-methyl}-imidazo[1,2-a]pyridin-7-yl)-N-hydroxy-acrylamide] | – | 480 nM | 70 nM |
| CCC(CC)CN(CC)Cc1c(C(C)(C)C)nc2cc(C=CC(=O)NO)ccn12 [Compound 24, 3-(2-tert-Butyl-3-{[ethyl-(2-ethyl-butyl)-amino]-methyl}-imidazo[1,2-a]pyridin-7-yl)-N-hydroxy-acrylamide] | – | 970 nM | 190 nM |
| CCCCCCCN(CC)Cc1c(C(C)(C)C)nc2cc(/C=C/C(=O)NO)ccn12 [Compound 25] | – | 2700 nM | 540 nM |
| CCN(CCCSC)Cc1c(C(C)(C)C)nc2cc(C=CC(=O)NO)ccn12 [Compound 26, 3-(2-tert-Butyl-3-{[ethyl-(3-methylsulfanyl-propyl)-amino]-methyl}-imidazo[1,2-a]pyridin-7-yl)-N-hydroxy-acrylamide] | – | 600 nM | 90 nM |
| CCN(Cc1c(C(C)(C)C)nc2cc(C=CC(=O)NO)ccn12)CC1CC1 [Compound 27, 3-{2-tert-Butyl-3-[(cyclopropylmethyl-ethyl-amino)-methyl]-imidazo[1,2-a]pyridin-7-yl}-N-hydroxy-acrylamide] | – | 2100 nM | 330 nM |
| CCN(Cc1c(C(C)(C)C)nc2cc(C=CC(=O)NO)ccn12)CC1CCCCC1 [Compound 28, 3-{2-tert-Butyl-3-[(cyclohexylmethyl-ethyl-amino)-methyl]-imidazo[1,2-a]pyridin-7-yl}-N-hydroxy-acrylamide] | – | 1100 nM | 190 nM |
| CCN(CCC(C)C)Cc1c(CC(C)C)nc2cc(C=CC(=O)NO)ccn12 [Compound 60, 3-(3-{[Ethyl-(3-methyl-butyl)-amino]-methyl}-2-isobutyl-imidazo[1,2-a]pyridin-7-yl)-N-hydroxy-acrylamide] | – | 150 nM | – |
